Assay results reported in PMC6522524 (Nature Communications, 2019).
“And” between values parts separate entries of the source, which are not always exact repeats. Equal values may be shown once. Where a name gives a salt, the structure may show the parent alone. Read-outs that look alike come from different tables or passages of the source.

Tests used:
[1] = system: HBV pgRNA/precore RNA in HepG2.2.15 cells; type: cell-based, Hepatitis B virus
Procedure: Fig. 1 Effect of FDA-approved compounds on HBV replication. a Schematic depiction of the primary screening analysis. HepG2.2.15 cells, which were stably transfected with HBV replicons, were treated with 978 FDA-approved drugs (1 μM) for 3 days. Entecavir (ETV) (1 μM) served as positive control. […] Quantitative RT-PCR was performed after 6 days of incubation. d Effect of the 19 candidates on intracellular HBV capsid assembly. Huh-7 cells were transfected with pCDNA3-Core and exposed after 12 h to the 19 candidates (1 μM) for 36 h. The cells were lysed and assembled HBV core particles were isolated by sucrose step gradient ultracentrifugation, resolved on 1% agarose gels, and subjected to immunoblot analysis with anti-HBV core antibody.
Quantitative RT-PCR with primers that detect three HBV regions (R1, R2, and R3, Supplementary Table 1) was used to measure HBV transcription. This RT-PCR detects pgRNA and precore RNA (3.5 kB), two HBV surface-encoding RNAs (2.5 kB and 2.1 kB), and HBx-encoding RNA (0.7 kB)[55]. PCR conditions were 95 °C for 10 min initially, then 50 cycles of 95 °C for 30 s, 60 °C for 60 s and 72 °C for 30 s, and finally 1 cycle of 95 °C for 60 s, 55 °C for 30 s and 95 °C for 30 s.
a Schematic depiction of the R1, R2, and R3 regions of the HBV genome that were targeted by
quantitative RT-PCR to quantitate the transcription of pgRNA, two HBV surface RNAs, and HBx RNA.
pGL3/HBV pgRNA promoter or pGL3/HBV sRNA promoter. The data shown in (b – d) represent two

[2] = ref https://www.drugbank.ca/; cited from earlier work
[3] = system: HBV (ayw subtype, genotype D) replicon in HepG2.2.15 cells; experiment: microbe, parasite or virus in culture; type: cell-based, Hepatitis B virus; settings: for inhibition at 1 µM: Hepatitis B virus
[4] = HepG2.2.15, 72 h, read-out: % of inhibition (ETV =100%), initial screening (3days)
[5] = HepG2.2.15, 144 h, read-out: % of inhibition (ETV =100%), confirmation (6days)
[6] = HepG2.2.15, 72 h, 1 μM, 3 days, ETV =100%, read-out: % of inhibition (ETV =100%), initial screening (3days)
[7] = HepG2.2.15, 144 h, 6 days, ETV =100%, read-out: % of inhibition (ETV =100%), confirmation (6days)

| Molecule | Relative HBV pgRNA/precore RNA level (Folds), AVERAGE ([1]; Fig. 1c, 6 days) [Folds] | pKa value (basic) [2] | Relative HBV pgRNA/precore RNA level (Folds), AVERAGE [1] [Folds] | pKa value (acidic) [2] | inhibition at 1 µM [3, 6] [%] | inhibition at 1 µM [3, 7] [%] | also measured |
| --- | --- | --- | --- | --- | --- | --- | --- |
| Cc1c(N(C)C)c(=O)n(-c2ccccc2)n1C [Amidopyrine] | 1.046 | 3.47 |  |  |  |  | Relative HBV pgRNA/precore RNA level (Folds), individual samples ([1]; Fig. 1c, 6 days, Sample1-3): 1.129 Folds and 0.9386 Folds and 1.071 Folds; % of inhibition (ETV =100%), initial screening (3days) ([3]; 1 μM, 3 days, ETV =100%): 111.6%; % of inhibition (ETV =100%), confirmation (6days) ([3]; 6 days, ETV =100%): 7.1%; Relative secreted HBV DNA level (Folds), AVERAGE ([3]; Fig. 1b, 6 days): 0.9368 Folds; Relative secreted HBV DNA level (Folds), individual samples ([3]; Fig. 1b, 6 days, Sample1-3): 0.9368 Folds and 0.9352 Folds and 0.9383 Folds |
| Clc1ccc(COC(Cn2ccnc2)c2ccc(Cl)cc2Cl)cc1 (stereo not shown) [Econazole nitrate] |  | 6.77 | 0.0453 |  |  |  | inhibition at 1 µM [3, 4]: 147%; inhibition at 1 µM [3, 5]: 27.5% |
| L-Adrenaline | 0.9192 |  |  |  |  |  | Relative HBV pgRNA/precore RNA level (Folds), individual samples ([1]; Fig. 1c, 6 days, Sample1-3): 1.032 Folds and 0.7969 Folds and 0.9286 Folds; % of inhibition (ETV =100%), initial screening (3days) ([3]; 1 μM, 3 days, ETV =100%): 152.6%; % of inhibition (ETV =100%), confirmation (6days) ([3]; 6 days, ETV =100%): 1.5%; Relative secreted HBV DNA level (Folds), AVERAGE ([3]; Fig. 1b, 6 days): 0.9865 Folds; Relative secreted HBV DNA level (Folds), individual samples ([3]; Fig. 1b, 6 days, Sample1-3): 0.9865 Folds and 0.985 Folds and 0.9881 Folds |
| CN1C(C(=O)Nc2ccccn2)=C(O)c2sccc2S1(=O)=O [Tenoxicam] |  | 4.26 | 0.04619 | 2.21 |  |  | inhibition at 1 µM [3, 4]: 110%; inhibition at 1 µM [3, 5]: 79.4% |
| Clc1ccc(COC(Cn2ccnc2)c2ccc(Cl)cc2Cl)c(Cl)c1 (stereo not shown) [Miconazole] |  | 6.77 | 0.964 |  |  |  | inhibition at 1 µM [3, 4]: 132%; inhibition at 1 µM [3, 5]: -2.8% |
| Clc1ccc(C(Cn2ccnc2)OCc2c(Cl)cccc2Cl)c(Cl)c1 (stereo not shown) [Isoconazole nitrate] | 1.034 | 6.77 |  |  | 148 | 41.4 |  |
| O=N[O-].[Na+] [Sodium nitrite] |  |  | 0.04652 |  |  |  | Relative HBV pgRNA/precore RNA level (Folds), individual samples [1]: 0.04803 Folds and 0.041 Folds and 0.05054 Folds; % of inhibition (ETV =100%), confirmation (6days) [3]: 83.1%; Relative secreted HBV DNA level (Folds), AVERAGE [3]: 0.2643 Folds; Relative secreted HBV DNA level (Folds), individual samples [3]: 0.2643 Folds and 0.2628 Folds and 0.2659 Folds; % of inhibition (ETV =100%), initial screening (3days) ([3]; 1 µM): 152.7% |
| O=C1NC(=O)C(c2ccccc2)(c2ccccc2)N1 [Phenytoin sodium] | 0.7935 |  |  | 9.47 | 124 | -2.4 |  |
| CC(C)(C)c1ccc(C(O)CCCN2CCC(C(O)(c3ccccc3)c3ccccc3)CC2)cc1 (stereo not shown) [Terfenadine] |  | 9.02 | 0.05435 | 13.2 |  |  | inhibition at 1 µM [3, 4]: 101%; inhibition at 1 µM [3, 5]: 83.6% |
| COc1cc(C)c(/C=C/C(C)=C/C=C/C(C)=C/C(=O)O)c(C)c1C [Acitretin] | 0.9923 | -4.8 |  | 5.01 | 110 | 1.8 |  |
| CCCN(CCc1cccs1)[C@H]1CCc2c(O)cccc2C1 [Rotigotine] | 1.049 | 10.97 |  | 10.03 | 104 | 65.9 |  |
| CC(C)NCC(O)c1ccc(NS(C)(=O)=O)cc1 (stereo not shown) [Sotalol] | 1.022 | 9.43 |  | 10.07 | 128 | 69.7 |  |
| O=c1[nH]c(=O)n(C2CCCO2)cc1F (stereo not shown) [Ftorafur] | 0.977 | -4.3 |  | 8.08 | 131 | 64.7 |  |
| CCOCC(O)COc1ccc(NC(=O)CC[S+](C)C)cc1 (stereo not shown) [Suplatast tosylate] | 1.034 |  |  | 12.7 | 125 | 76.2 |  |
| OC(CNCC(O)C1CCc2cc(F)ccc2O1)C1CCc2cc(F)ccc2O1 (stereo not shown) [Nebivolol] | 0.9531 | 8.9 |  | 13.52 | 103 | 78.4 |  |
| OC(CCN1CCCC1)(c1ccccc1)C1CCCCC1 (stereo not shown) [Procyclidine HCl] | 1.056 | 9.45 |  |  | 112 | 70.4 |  |
| NCCc1ccc(O)c(O)c1 [Dopamine hydrochloride] |  | 9.27 | 1.103 | 10.01 |  |  | inhibition at 1 µM [3, 4]: 162%; inhibition at 1 µM [3, 5]: 67.9% |
| C[N+]1(C)[C@@H]2C[C@@H](OC(=O)C(O)(c3cccs3)c3cccs3)C[C@H]1[C@@H]1O[C@@H]12 [Tiotropium Bromide hydrate] | 1.071 | -4.3 |  | 10.35 | 117 | 4.9 |  |
